{"source": "patent US20110039763A1", "about": "“TARGETED ANTIMICROBIAL MOIETIES” (C3 JIAN, INC., priority 2009, published 2011)", "key": {"[1]": {"test_system": "BHK-21 (ATCC CRL-10) fibroblasts", "assay": "Cytotoxicity (Promega CellTiterGlo assay)", "format": "cell-based, hamster", "procedure": "Streptococcus oralis ATCC 10557, Streptococcus gordonii (Challis), Streptococcus sanguinis (NY101), Streptococcus mitis ATCC 903, Streptococcus salivarius ATCC 13419 and S. mutans wild-type UA140 and JM11 (spectinomycin-resistant) strains were grown in Todd-Hewitt (TH) broth 37° C. in an anaerobic atmosphere of 80% N2, 10% CO2, and 10% H2. BHK-21 (ATCC CRL-10) fibroblasts were propagated in DMEM with 10% FBS, 1 mM sodium pyruvate, 100 units/mL penicillin G, and 100 μg/mL streptomycin at 37° C. with 5% CO2. Cells were detached with 0.25% trypsin and subcultured as recommended by the supplier.\nThe effect of RB and C16-RB on human fibroblasts was ascertained by utilizing the Promega CellTiterGlo assay, as described by the manufacturer. Briefly, fibroblasts were grown to confluence, detached, and seeded to 5,000 cells per well in a 96-well opaque walled, clear bottom 96-well plate (Nunc International). For long-term dark toxicity, cells were allowed to attach to for 18 h before the culture medium was replaced with medium plus serially-diluted RB or C16-RB (200 μM to 390 nM) or medium alone. After 18-24 h, equal volume Cell Titer Glo reagent was added to each well and mixed. Luciferace activity was then quantified to measure cell viability (Varian Fluorometer in Biolumenescence mode). To measure cytotoxicity after RB or C16-RB light exposure, cells were seeded at ˜10,000 cells per well and allowed to attach for 4 h. Cell growth medium was then replaced with RB or C16-RB containing medium, prior to exposure (a single well at a time) with blue light (400 mW/cm^2) suspended ˜3 cm from the well bottom. After exposure, cultures were disrupted with Cell Titer Glo and luciferase activity quantitated as above."}, "[2]": {"test_system": "mixed biofilms of S. oralis, S. gordonii, S. mitis, S. sanguinis, S. salivarius, and S. mutans JM11", "assay": "Photodynamic antimicrobial assay, multispecies biofilm", "format": "cell-based", "procedure": "To gauge C16-RB selectivity for S. mutans, similar assays were conducted against multispecies biofilms. Mixed biofilms were seeded by diluting (1:5000) a mixture of equal parts S. oralis, S. gordonii, S. mitis, S. sanguinis, S. salivarius, and S. mutans JM11 (made from overnight cultures) into TH with 1% sucrose, 1% glucose, and 1% mannose. Biofilms were incubated and treated as described above with the addition of vitamin C or potassium gluconate. After the addition of agent and 5 min incubation, biofilms were washed 1× with 1×PBS prior to light exposure. After PDT and biofilm disruption, survivors were plated on TH, and TH supplemented with 800 μg/mL spectinomycin, which allowed for quantitation of surviving total oral streptococci and surviving S. mutans, respectively.\nC16-RB was next evaluated for selectivity in mixed cultures containing S. mutans and non-cariogenic oral streptococci that compete for the same niche on the tooth surface. We utilized mixed biofilms of S. mutans transformed with spectinomycin resistance (strain JM11, Merritt, et al., 2005), plus S. oralis, S. gordonii, S. mitis, S. sanguinis, and S. salivarius. The mixed cultures were grown 24 and then treated with RB or C16-RB as indicated, plus potassium gluconate to minimize killing of untargeted bacteria by reducing the superoxide-producing activity of the free C16-RB not bound to S. mutans. […]"}, "S. mutans UA140 biofilms": {"test_system": "S. mutans UA140 biofilms", "assay": "Photodynamic antimicrobial assay, single-species biofilm", "format": "cell-based, Streptococcus mutans", "details": "24 h S. mutans biofilm; 5 μM, no light", "procedure": "To evaluate C16-RB against monoculture biofilms, S. mutans UA140 was grown overnight in TH prior to inoculation for biofilm formation. For biofilms, 1:5000 dilution of overnight culture was made into TH with 1% sucrose in 2 mL centrifuge tubes (200 μL volume) and grown 24 h under anaerobic conditions. After incubation, biofilms were treated for 5 min with 5 or 25 μM C16-RB or 5 μM RB in 1×PBS, or PBS alone, followed by removal of supernatant and exposure to 5 min blue light (emission 400-550 nm, power 400 mW/cm^2) from an Astralis 7 (Ivoclar Vivodent, Austria) handheld LED commonly used as a dental curing light. The light source was suspended 4 cm from the tube bottom (even with the mouth of the tube). A duplicate set of samples were left covered to serve as dark controls. After treatment, biofilms were mechanically disrupted and plated to determine cfu/mL.\nAfter synthesis, the basic photosensitization potential of C16-RB was assessed by challenging mature single-species S. mutans biofilms (grown 24 h) with C16-RB or unmodified RB, followed by blue emission from a dental curing light."}, "E. faecalis": {"test_system": "E. faecalis", "assay": "MIC test / antimicrobial activity, E. faecalis", "format": "cell-based, Enterococcus faecalis", "procedure": "(§1) The active AMPs, STAMPs and the like can be identified and/or validated using an in vitro screening assay.\n(§2) It will be appreciated that other assays as are well known in the art or that will become apparent to those having skill in the art upon review of this disclosure may also be used to identify active AMPs. Such assays include, for example, the assay described in Lehrer et al. (1988) J. Immunol.\n(§3) Peptides were evaluated for basic antimicrobial activity by broth microdilution, as described previously (Eckert et al. (2006) Antimicrob Agents Chemother., 50: 3651-3657; Eckert et al. (2006) Antimicrob Agents Chemother., 50: 1480-1488). Briefly, ˜1×10^5 cfu/mL bacteria were diluted in TH (S. mutans), or Mueller-Hinton (MH) broth (all other organisms) and distributed to 96-well plates. Serially-diluted (2-fold) peptides were then added and the plates incubated at 37° C. for 18-24 h. […] All experiments were conducted 10 times."}, "C. albicans": {"test_system": "C. albicans", "assay": "MIC test / antimicrobial activity, C. albicans", "format": "cell-based, Candida albicans", "procedure": "as §1, §2, §3"}, "B. subtilis": {"test_system": "B. subtilis", "assay": "MIC test / antimicrobial activity, B. subtilis", "format": "cell-based, Bacillus subtilis", "details": "B. subtilis", "how_it_was_run": "(§4)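 Broth microdilution with ~1×10^5 cfu/mL organisms in TH broth (S. mutans) or Mueller-Hinton broth (other organisms). Peptides added as 2-fold serial dilutions, then incubated 18-24 h at 37° C. Experiments run 10 times.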"}, "A. niger": {"test_system": "A. niger", "assay": "MIC test / antimicrobial activity, A. niger", "format": "cell-based, Aspergillus niger", "procedure": "as §1, §2, §3"}, "microorganisms [3]": {"test_system": "microorganisms", "assay": "Peptide activities: targeting/binding, antimicrobial, growth or phenotype altering (Tables 7, 8)", "format": "cell-based", "details": "peptides having multiple activities"}, "T. rubrum": {"test_system": "T. rubrum", "assay": "MIC test / antimicrobial activity, T. rubrum", "format": "cell-based, Trichophyton rubrum", "how_it_was_run": "as §4"}, "microorganisms [4]": {"test_system": "microorganisms", "assay": "Morphology, biofilm and growth disrupting peptides (Table 5)", "format": "cell-based", "parameters": "key: A: Peptide aggregates; B: Less hyphal formation; Clumps; Diffuse clumps and small polyps; F: Diffuse growth; H: Thin; I: Growth inhibition; Microcolony formation; Rippled; Small polyps; Thick; W: Halo formation on top, microlonies on bottom", "excerpt": "In certain embodiments peptides that induce alterations in phenotype or other biological activities can also be used as antimicrobial effector moieties."}, "S. epidermidis": {"test_system": "S. epidermidis", "assay": "MIC test (broth microdilution) / antimicrobial activity, S. epidermidis", "format": "cell-based, Staphylococcus epidermidis", "details": "S. epidermidis", "procedure": "as §1, §2, §3"}, "MRSA": {"test_system": "MRSA", "assay": "MIC test / antimicrobial activity, MRSA", "format": "cell-based, Methicillin-resistant Staphylococcus aureus", "how_it_was_run": "as §4"}}}
{"compound": "O=C1OC2(c3cc(I)c(O)c(I)c3Oc3c2cc(I)c(O)c3I)c2c(Cl)c(Cl)c(Cl)c(Cl)c21", "note": "[RB, rose bengal]", "values": [{"measurement": "IC50", "setting": "[1]; 5 min w/blue light", "value": 40, "unit": "µM"}, {"measurement": "IC50 (μM) BHK", "setting": "[1]; 5 min w/blue light", "value": "light-dependent toxicity"}, {"measurement": "IC50", "setting": "[1]; 24 h dark", "value": 90, "unit": "µM"}, {"measurement": "selectivity of photodynamic antimicrobial activity", "setting": "[2]; blue light illumination, FIG. 22", "value": "strong indiscriminant photodynamic antimicrobial effects"}, {"measurement": "ratio of surviving S. mutans:non-cariogenic streptococci cfu", "setting": "[2]; potassium gluconate, blue light", "value": "~1"}, {"measurement": "decrease in cfu/mL, dark control", "setting": "S. mutans UA140 biofilms", "value": "appreciable decreases in cfu/mL were not observed"}]}
{"compound": "MRFGSLALVAYDSAIKHSWPRPSSVRRLRM [PF-672]", "values": [{"measurement": "Organism MIC (μM)", "setting": "E. faecalis", "value": "E. faecalis, 3.13 μM"}, {"measurement": "Organism MIC (μM)", "setting": "C. albicans", "value": "C. albicans, 1.56 μM"}, {"measurement": "Organism MIC (μM)", "setting": "B. subtilis", "value": "B. subtilis, 0.78 μM"}, {"measurement": "Organism MIC (μM)", "setting": "A. niger", "value": "A. niger, 3 μM"}, {"measurement": "Activities", "setting": "microorganisms [3]", "value": "G B M"}, {"measurement": "Organism MIC (μM)", "setting": "T. rubrum", "value": "T. rubrum, 0.78 μM"}, {"measurement": "Organism, effect", "setting": "microorganisms [4]; B. subtilis", "value": "B. subtilis (I)"}, {"measurement": "Organism, effect", "setting": "microorganisms [4]; C. albicans", "value": "C. albicans (I)"}, {"measurement": "Organism, effect", "setting": "microorganisms [4]; C. jeikeium", "value": "C. jeikeium (R)"}, {"measurement": "Organism, effect", "setting": "microorganisms [4]; E. faecalis", "value": "E. faecalis (I)"}, {"measurement": "Organism, effect", "setting": "microorganisms [4]; MRSA", "value": "MRSA (I)"}, {"measurement": "Organism, effect", "setting": "microorganisms [4]; S. epidermidis", "value": "S. epidermidis (I)"}, {"measurement": "Organism, effect", "setting": "microorganisms [4]; S. pneumoniae", "value": "S. pneumoniae (I)"}, {"measurement": "Organism MIC (μM)", "setting": "S. epidermidis", "value": "S. epidermidis, 0.39 μM"}, {"measurement": "Organism MIC (μM)", "setting": "MRSA", "value": "MRSA, 1.56 μM"}]}
